Test results published in US8940943B2, “Cosmetic preparations” (Cognis IP Management GmbH, priority 2010, dated 2015).

Experiments:
[1] = tested on: human skin; test: occlusive epicutaneous 24 h patch test (skin compatibility)
Description: The di(2-propylheptyl)ether obtained according to production example 2 was compared in an occlusive epicutaneous 24 h patch test against the commercially available di-n-octyl ether. […] 24 after application the patch was removed, after a further 6 hours the first visual assessment was carried out, further assessments were carried out 24, 48 and 72 hours after the patch was removed.
The assessment was based on a scale from 0 (no reaction) to 4 (strong reaction) in the categories: erythema formation, edema formation, formation of scales (=squamation) and formation of cracks (=fissuration). A so-called total irritation score RSS value was found from the values obtained.

[2] = tested on: human skin; test: in-vivo patch test, 24 hours on human skin, skin reddening or irritation; conditions: compared to diethylhexyl ether, water and surfactant solution as negative and positive standards
Description: In an in-vivo patch test, the test substances are applied on human skin and left there for 24 hours. Then an assessment is made with respect to possible occurrence of skin reddening or irritation. As comparison, in each case water and a surfactant solution are tested as negative and positive standards.

| Compound | total irritation score RSS ([1]; 22 test subjects, applied on back, occlusive 24 h patch (Finn Chambers), assessed 6, 24, 48 and 72 h after patch removal, scale 0-4 for erythema, edema, squamation, fissuration) | total irritation score RSS ([1]; human, in vivo, 24 h) | skin compatibility [2] |
| --- | --- | --- | --- |
| CCCCCCCCCCCCOS(=O)(=O)[O-].[Na+] [Positive control, sodium dodecyl sulfate] | 7.95 |  |  |
| CCCCCCCCOCCCCCCCC [Di-n-alkyl ether (Cetiol ® OE), di-n-octyl ether] |  | 7.1 |  |
| CCCCCC(CCC)COCC(CCC)CCCCC (stereo not shown) [Di(2-propylheptyl)ether] |  | 3.62 | improved skin compatibility |
